According to PMC9151520 (Archives of Toxicology, 2022):
Values joined by “and” are separate entries in the source; they are usually repeats but may differ in a detail not shown here. Equal entries are not always repeated. Structures can show the parent of a compound that is named as a salt. Where two headings read alike, the source gives them in different places.

Columns and labels:
[1] = system: p53 signaling (p53RE-bla HCT-116 cells); assay: cells; assay type: cell-based
[2] = system: p53 signaling (p53RE-bla HCT-116 cells)
[3] = system: p53RE-bla HCT-116 cells
[4] = system: p53 signaling (p53RE-bla HCT-116 cells); assay: cells; conditions: Homo sapiens
[5] = system: p53 signaling (p53RE-bla HCT-116 cells); remark: listed apart in the source
[6] = HCT-116, read-out: p53 activation EC50, cherry pick confirmation
[7] = HCT-116, read-out: p53 activation efficacy, cherry pick confirmation
[8] = Homo sapiens, HCT-116, read-out: p53 activation EC50, primary screening
[9] = Homo sapiens, HCT-116, read-out: p53 activation efficacy, primary screening
[10] = read-out: p53 activation EC50, cherry pick confirmation
[11] = read-out: p53 activation EC50, primary screening

| Structure (SMILES) | p53 activation EC50, cherry pick confirmation [1] | p53 activation EC50, primary screening [1] | p53 activation efficacy, cherry pick confirmation [1] | p53 activation efficacy, primary screening [1] | p53 activation EC50, cherry pick confirmation [2] | p53 activation efficacy, cherry pick confirmation [2] | Viability EC50, cherry pick confirmation [3] | Viability EC50, primary screening [3] | Viability efficacy, cherry pick confirmation [3] | Viability efficacy, primary screening [3] | EC50 [4, 6] | Emax [4, 7] | p53 activation EC50, cherry pick confirmation [5] | p53 activation EC50, primary screening [5] | p53 activation efficacy, cherry pick confirmation [5] | p53 activation efficacy, primary screening [5] | p53 activation EC50, primary screening [2] | p53 activation efficacy, primary screening [2] | also measured |
| --- | --- | --- | --- | --- | --- | --- | --- | --- | --- | --- | --- | --- | --- | --- | --- | --- | --- | --- | --- |
| Nc1ccn([C@@H]2O[C@H](CO)[C@@H](O)[C@@H]2O)c(=O)n1 [Cytarabine] | – | – | – | – | – | – | – | – | – | – | – | – | – | – | – | – | – | – | EC50 ([1]; Homo sapiens, HCT-116, read-out: EC50, p53 activation, cherry pick confirmation): 0.913 µM; Emax ([1]; Homo sapiens, HCT-116, read-out: Efficacy, p53 activation, cherry pick confirmation): 96.4%; Emax ([1]; Homo sapiens, HCT-116, read-out: Efficacy, p53 activation, primary screening): 83.8%; EC50, p53 activation, cherry pick confirmation [2]: inactive; EC50, p53 activation, primary screening [2]: inactive; Efficacy, p53 activation, cherry pick confirmation [2]: inactive; Efficacy, p53 activation, primary screening [2]: inactive; EC50, viability, cherry pick confirmation [3]: inactive; EC50, viability, primary screening [3]: inactive; Efficacy, viability, cherry pick confirmation [3]: inactive; Efficacy, viability, primary screening [3]: inactive; EC50 ([4]; HCT-116, read-out: EC50, p53 activation, cherry pick confirmation): 0.903 µM; Emax ([4]; HCT-116, read-out: Efficacy, p53 activation, cherry pick confirmation): 33.4%; Emax ([4]; HCT-116, read-out: Efficacy, p53 activation, primary screening): 31.7% |
| CCN(C)C(=O)Oc1cccc([C@H](C)N(C)C)c1 [Rivastigmine tartrate] | inactive | inactive | inactive | inactive | inactive | inactive | inactive | inactive | inactive | inactive | 8.41 µM | 32.8% | – | – | – | – | – | – | – |
| COP(=O)(OC)O/C(=C\Cl)c1cc(Cl)c(Cl)cc1Cl [Z-Tetrachlorvinphos] | inactive | inactive | inactive | inactive | inactive | inactive | inactive | inactive | inactive | inactive | 31.6 µM | 115% | – | – | – | – | – | – | – |
| CNC(=O)Oc1cc(C)cc(C(C)C)c1 [Promecarb] | inactive | inactive | inactive | inactive | inactive | inactive | inactive | inactive | inactive | inactive | 20 µM | 40.2% | – | – | – | – | – | – | – |
| O=C(c1ccc(O)cc1)c1ccc(O)cc1O [2,4,4'-Trihydroxybenzophenone] | – | – | – | – | – | – | – | – | – | – | – | – | – | – | – | – | – | – | EC50, p53 activation, cherry pick confirmation [1]: inactive; Efficacy, p53 activation, cherry pick confirmation [1]: inactive; Efficacy, p53 activation, primary screening [1]: 51.9983; EC50 ([1]; read-out: EC50, p53 activation, primary screening): 46.5 µM; EC50, p53 activation, cherry pick confirmation [5]: inactive; EC50, p53 activation, primary screening [5]: inactive; Efficacy, p53 activation, cherry pick confirmation [5]: inactive; Efficacy, p53 activation, primary screening [5]: inactive; EC50, p53 activation, cherry pick confirmation [2]: inactive; EC50, p53 activation, primary screening [2]: inactive; Efficacy, p53 activation, cherry pick confirmation [2]: inactive; Efficacy, p53 activation, primary screening [2]: inactive; EC50, viability, cherry pick confirmation [3]: inactive; EC50, viability, primary screening [3]: inactive; Efficacy, viability, cherry pick confirmation [3]: inactive; Efficacy, viability, primary screening [3]: inactive |
| C[C@]12CC[C@@H]3c4ccc(O)cc4CC[C@H]3[C@@H]1CC[C@H]2O [17alpha-Estradiol] | inactive | – | inactive | – | inactive | inactive | inactive | inactive | inactive | inactive | – | – | inactive | inactive | inactive | inactive | inactive | inactive | EC50 [1, 8]: 12.3 µM; Emax [1, 9]: 54.4% |
| CO.COc1cc(Nc2c(C#N)cnc3cc(OCCCN4CCN(C)CC4)c(OC)cc23)c(Cl)cc1Cl [Bosutinib methanoate] | – | – | 36.685 | 29.3917 | inactive | inactive | inactive | inactive | inactive | inactive | – | – | inactive | inactive | inactive | inactive | inactive | inactive | EC50 [1, 10]: 17.3 µM; EC50 [1, 11]: 15.4 µM |
| CC(=O)[O][Sn]([c]1ccccc1)([c]1ccccc1)[c]1ccccc1 [Triphenyltin acetate] | – | – | 67.021 | 86.4573 | inactive | inactive | – | – | – | – | – | – | inactive | inactive | inactive | inactive | inactive | inactive | EC50 [1, 10]: 14.4 µM; EC50 [1, 11]: 22 µM; EC50 ([3]; read-out: Viability EC50, cherry pick confirmation): 5.01 µM and 5.33 µM and 6.71 µM; EC50 ([3]; read-out: Viability EC50, primary screening): 5.39 µM and 7.79 µM and 6.43 µM |
| Cc1ccccc1C(=O)Nc1ccc(C(=O)N2CCCC(N(C)C)c3ccccc32)cc1 (centres unmarked) [Mozavaptan] | – | – | – | – | inactive | inactive | inactive | inactive | inactive | inactive | – | – | inactive | inactive | inactive | inactive | inactive | inactive | EC50 ([1]; Homo sapiens, HCT-116, read-out: p53 activation EC50, cherry pick confirmation): 1.36 µM; EC50 [1, 8]: 7.97 µM; Emax ([1]; Homo sapiens, HCT-116, read-out: p53 activation efficacy, cherry pick confirmation): 38.6%; Emax [1, 9]: 66.2% |
| O=C(O)Cc1cc(I)c(Oc2ccc(O)c(I)c2)c(I)c1 [Tiratricol] | – | – | – | – | – | – | – | – | – | – | – | – | – | – | – | – | – | – | p53 activation efficacy [1]: 79.5057 and 58.391; EC50 ([1]; Homo sapiens, HCT-116, read-out: p53 activation EC50): 16.5 µM; EC50 ([1]; read-out: p53 activation EC50): 10.7 µM; p53 activation EC50 [5]: inactive; p53 activation efficacy [5]: inactive; p53 activation EC50 [2]: inactive; p53 activation efficacy [2]: inactive; Viability EC50 [3]: inactive; Viability efficacy [3]: inactive |
